Source: US20190070163A1, “ANTITUMOR AGENT” (TOCHIGI INSTITUTE OF CLINICAL PATHOLOGY, priority 2013, published 2019)

Test system: spontaneously developed mammary gland tumors (adenocarcinoma and adenoma)
Assay: Therapeutic effect on tumor-bearing rats; light and electron microscopy of removed tumor tissues
Type: in vivo, Sprague-Dawley rats
Details: for apoptosis of smooth muscle cells in the tumor site: electron micrographs FIGS. 12 to 15; for degeneration of axons of peripheral nerve cells in the tumor site / degeneration of myelin sheaths of peripheral nerve cells in the tumor site: electron micrographs FIGS. 16 to 19; for stage of apoptosis of endothelial cells (irregular condensation and fragmentation of nuclei): staging per Ihara et al. 1998; for apoptosis in the tumor cells / inhibitory effect on the development and the growth of the tumor cells: tumor-bearing rats, oral daily (montelukast sodium 0.16, zafirlukast 1.33, pranlukast hydrate 7.5, zileuton 34.3 mg/kg), vs untreated
Description: Sprague-Dawley rats which had spontaneously developed a tumor during breeding (hereinafter referred to as tumor-bearing rats) were purchased from Charles River Japan, Inc., and used for experiments. Tumors observed were all mammary gland tumors (adenocarcinoma and adenoma). All of these were spontaneous tumors, and the rats were cancer-bearing animals having various conditions of tumorigenesis including carcinogenic factors in mammals including human.
Under ether anesthetization, tumor tissues were removed from tumor-bearing rats. The removed tumors were fixed, and thereafter samples for light microscopy (hematoxylin-eosin staining) and samples for electron microscopy (uranium-lead double staining) were prepared and observed.
To tumor-bearing rats, a leukotriene inhibitor containing montelukast sodium as an active ingredient (leukotriene receptor antagonist; trade name “Singulair Tablets”; manufactured by MSD K. K.) was orally administered for up to 7 days at a daily dose of 0.16 mg/kg body weight in terms of montelukast sodium. On Day 3 and Day 7, tumor tissues were removed under ether anesthetization. In the same manner as in Comparative Example 1, the removed tumors were fixed, and thereafter samples for light microscopy (hematoxylin-eosin staining) and samples for electron microscopy (uranium-lead double staining) were prepared and observed.
To tumor-bearing rats, a leukotriene inhibitor containing zafirlukast as an active ingredient (leukotriene receptor antagonist; trade name “Accolate”; manufactured by AstraZeneca K. K.) was orally administered for up to 7 days at a daily dose of 1.33 mg/kg body weight in terms of zafirlukast. On Day 3 and Day 7, tumor tissues were removed under ether anesthetization. In the same manner as in Comparative Example 1, the removed tumors were fixed, and thereafter samples for light microscopy (hematoxylin-eosin staining) and samples for electron microscopy (uranium-lead double staining) were prepared and observed.
To tumor-bearing rats, a leukotriene inhibitor containing pranlukast hydrate as an active ingredient (leukotriene receptor antagonist; trade name “Onon”; manufactured by Ono Pharmaceutical Co., Ltd.) was orally administered for up to 7 days at a daily dose of 7.5 mg/kg body weight in terms of pranlukast hydrate. On Day 3 and Day 7, tumor tissues were removed under ether anesthetization. In the same manner as in Comparative Example 1, the removed tumors were fixed, and thereafter samples for light microscopy (hematoxylin-eosin staining) and samples for electron microscopy (uranium-lead double staining) were prepared and observed.
To tumor-bearing rats, a leukotriene inhibitor containing zileuton as an active ingredient (leukotriene biosynthesis inhibitor; trade name “ZYFLO”; manufactured by Abbott Laboratories) was orally administered for up to 7 days at a daily dose of 34.3 mg/kg body weight in terms of zileuton. On Day 3 and Day 7, tumor tissues were removed under ether anesthetization. In the same manner as in Comparative Example 1, the removed tumors were fixed, and thereafter samples for light microscopy (hematoxylin-eosin staining) and samples for electron microscopy (uranium-lead double staining) were prepared and observed.

[1] = oral, dosing period 3 days, electron micrographs

SMILES | apoptosis of fibroblasts in tumor tissue [1] | apoptosis of smooth muscle cells in the tumor site (oral, dosing period 3 days) | degeneration of axons of peripheral nerve cells in the tumor site (oral, dosing period 3 days) | degeneration of myelin sheaths of peripheral nerve cells in the tumor site (oral, dosing period 3 days) | stage of apoptosis of endothelial cells (irregular condensation and fragmentation of nuclei) [1] | apoptosis in the tumor cells | inhibitory effect on the development and the growth of the tumor cells | effect to inhibit stromal hyperplasia (oral, dosing period 3 days)
COc1cc(C(=O)NS(=O)(=O)c2ccccc2C)ccc1Cc1cn(C)c2ccc(NC(=O)OC3CCCC3)cc12 [zafirlukast] | apoptosis of fibroblast | apoptosis of a smooth muscle cell | vacuolation and degeneration of an axon | degeneration of a myelin sheath | Stage II to III | apoptosis was already induced on as early as Day 3 | remarkable inhibitory effect | 
CC(c1cc2ccccc2s1)N(O)C(N)=O (centres unmarked) [zileuton] |  | apoptosis of a smooth muscle cell | vacuolation and degeneration of an axon | degeneration of a myelin sheath | Stage II to III | apoptosis was already induced on as early as Day 3 | remarkable inhibitory effect | an effect to inhibit stromal hyperplasia was also seen
